Measurements from ChEMBL document CHEMBL5032530, “Discovery of Benzocyclic Sulfone Derivatives as Potent CXCR2 Antagonists for Cancer Immunotherapy” (J Med Chem, 2021).
The source made the active and inactive calls. No cut-off for these calls is given here.

What was measured:
[1] = molecular target: T1, C-X-C chemokine receptor type 2 (Homo sapiens, UniProt P25025); experiment: Antagonist activity at human CXCR2 expressed in HEK293 cells assessed as inhibition of CXCL8-induced beta-arrestin recruitment preincubated for 30 mins followed by addition of agonist incubated for 90 mins by beta arrestin assay; assay type: functional, cell-based
T1 sequence (P25025 whole entry): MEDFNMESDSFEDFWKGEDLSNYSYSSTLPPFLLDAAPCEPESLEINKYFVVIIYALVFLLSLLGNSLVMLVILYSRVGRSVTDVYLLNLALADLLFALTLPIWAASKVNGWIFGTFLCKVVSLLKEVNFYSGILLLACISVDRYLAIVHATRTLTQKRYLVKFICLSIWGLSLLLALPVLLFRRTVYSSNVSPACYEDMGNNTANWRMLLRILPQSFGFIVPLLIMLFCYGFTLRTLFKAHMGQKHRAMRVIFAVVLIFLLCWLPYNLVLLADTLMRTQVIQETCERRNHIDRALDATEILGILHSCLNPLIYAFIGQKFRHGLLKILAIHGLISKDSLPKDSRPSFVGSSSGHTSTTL

[2] = Tmax in ICR mouse at 3 mg/kg, iv measured upto 48 hrs; assay type: ADME, organism-based; details: in vivo
[3] = Tmax in ICR mouse at 30 mg/kg, po measured upto 48 hrs; assay type: ADME, organism-based; details: in vivo
[4] = Cmax in ICR mouse at 3 mg/kg, iv measured upto 48 hrs; assay type: ADME, organism-based; design: route intravenous, dose 3 mg/kg, time <=48; details: in vivo
[5] = Cmax in ICR mouse at 30 mg/kg, po measured upto 48 hrs; assay type: ADME, organism-based; design: route oral, dose 30 mg/kg, time <=48; details: in vivo
[6] = AUC (0 to t) in ICR mouse at 3 mg/kg, iv measured upto 48 hrs; assay type: ADME, organism-based; design: route intravenous, dose 3 mg/kg, time <=48; details: in vivo
[7] = AUC (0 to t) in ICR mouse at 30 mg/kg, po measured upto 48 hrs; assay type: ADME, organism-based; design: route oral, dose 30 mg/kg, time <=48; details: in vivo
[8] = AUC (0 to infinity) in ICR mouse at 3 mg/kg, iv measured upto 48 hrs; assay type: ADME, organism-based; design: route intravenous, dose 3 mg/kg, time <=48; details: in vivo
[9] = AUC (0 to infinity) in ICR mouse at 30 mg/kg, po measured upto 48 hrs; assay type: ADME, organism-based; design: route oral, dose 30 mg/kg, time <=48; details: in vivo, 48 h
[10] = Half life in ICR mouse at 3 mg/kg, iv measured upto 48 hrs; assay type: ADME, organism-based; details: in vivo
[11] = Half life in ICR mouse at 30 mg/kg, po measured upto 48 hrs; assay type: ADME, organism-based; details: in vivo, 30 mg/kg, 48 h
[12] = Apparent volume of distribution in ICR mouse at 3 mg/kg, iv measured upto 48 hrs; assay type: ADME, organism-based; details: in vivo, read-out: Vz
[13] = Apparent volume of distribution in ICR mouse at 30 mg/kg, po measured upto 48 hrs; assay type: ADME, organism-based; details: in vivo
[14] = Clearance in ICR mouse at 3 mg/kg, iv measured upto 48 hrs; assay type: ADME, organism-based; details: in vivo
[15] = Clearance in ICR mouse at 30 mg/kg, po measured upto 48 hrs; assay type: ADME, organism-based; details: in vivo, 30 mg/kg, 48 h
[16] = Oral bioavailability in ICR mouse at 30 mg/kg measured upto 48 hrs; assay type: ADME, organism-based; details: in vivo
Neutrophil = experiment: In vivo antagonist activity at CXCR2 in carrageenan-induced C57BL/6 mouse air pouch inflammation model assessed as reduction in neutrophil infiltration into air pouch at 10 mg/kg, po bid administered after 3 days of carrageenan treatment for 3 days; assay type: functional, organism-based; details: time 3.0 day

SMILES | IC50 [1] [nM] | also measured
O=c1c(Nc2ccc3c(c2O)S(=O)(=O)CCC3)c(Nc2cccc(Cl)c2Cl)c1=O | 9990 | –
Cc1c(F)cccc1Nc1c(Nc2ccc3c(c2O)S(=O)(=O)CC=C3)c(=O)c1=O | 370 | –
Cc1c(F)cccc1Nc1c(Nc2ccc3c(c2O)S(=O)(=O)CCC3)c(=O)c1=O | 1360 | –
O=C(Nc1ccc(Br)cc1)Nc1ccc2c(c1O)S(=O)(=O)CC=C2 | 1480 | –
O=C(Nc1ccccc1C(F)(F)F)Nc1ccc2c(c1O)S(=O)(=O)CCC2 | 4510 | –
Cc1c(F)cccc1NC(=O)Nc1ccc2c(c1O)S(=O)(=O)CCC2=O | 420 | –
O=c1c(Nc2ccccc2Cl)c(Nc2ccc3c(c2O)S(=O)(=O)CC=C3)c1=O | 200 | –
Cc1c(Cl)cccc1NC(=O)Nc1ccc2c(c1O)S(=O)(=O)CC=C2 | 1640 | –
O=C(Nc1ccccc1F)Nc1ccc2c(c1O)S(=O)(=O)CCC2 | 1020 | –
Cc1ccc(NC(=O)Nc2ccc3c(c2O)S(=O)(=O)CCC3)cc1 | 1320 | –
O=C(Nc1ccc2c(c1O)S(=O)(=O)CCC2)Nc1cccc(Cl)c1Cl | 210 | –
O=c1c(Nc2ccccc2Br)c(Nc2ccc3c(c2O)S(=O)(=O)CC=C3)c1=O | 78 | –
O=C(Nc1ccccc1Br)Nc1ccc2c(c1O)S(=O)(=O)CCC2 | 140 | –
O=C(Nc1ccc2c(c1O)S(=O)(=O)CCC2)Nc1cccc(F)c1Cl | 43 | –
NS(=O)(=O)c1c(Cl)ccc(NC(=O)Nc2cccc(Cl)c2Cl)c1O | 13 | Tmax [2]: 3.6 min; Tmax [3]: 18 min; Cmax [4]: 8350 ng/mL; Cmax [5]: 3810 ng/mL; AUC(0-t) at 48 h [6]: 3160 ng·h/mL; AUC(0-t) at 48 h [7]: 11100 ng·h/mL; AUC(0-inf) [8]: 3160 ng·h/mL; AUC [9]: 11072.08 ng·h/mL; half-life [10]: 216 min; t1/2 [11]: 215 min; Vd [12]: 5.07 L/kg; Vz [13]: 14.09 L/kg; clearance [14]: 16.3 mL/min/kg; CL [15]: 453.5 mL/min/kg; bioavailability [16]: 35%; Activity (Neutrophil): Active
O=C(Nc1ccccc1C(F)(F)F)Nc1ccc2c(c1O)S(=O)(=O)CC=C2 | 1600 | –
Cc1ccc(NC(=O)Nc2ccc3c(c2O)S(=O)(=O)CC=C3)cc1 | 190 | –
